Test results published in patent publication US20240075093A1, “COMPOSITIONS AND METHODS OF TREATING A PI3K MEDIATED DISEASE” (VIRGINIA TECH INTELLECTUAL PROPERTIES, INC., priority 2020, published 2024).
Where no end group is shown, it is not given here.

Tests used:
U87MG cells = experiment: MTS cell viability assay; assay type: cell-based, human; settings: 20 μM TGX-221/50 μM TMZ plus αCT1
Procedure: Cell viability was measured by the MTS assay. P values were determined using the student t test or one-way ANOVA. Error bars represent three independent experiments.
Cell viability was determined using the MTS viability assay. The vehicle DMSO was the control and set as 100%. Treated cells were normalized to DMSO-treated cells. […] (FIG. 43D) Scores of Excess Over Bliss in FIG. 43C calculated using the Bliss Independence model. One-way ANOVA and student t test were used to determine statistical significance.
Cell viability was determined by the MTS cell viability assay (Promega) as described previously 21,24-27. In brief, 250 to 1,000 cells were plated in the wells of a 96-well plate-based upon the cell growth rate. Because the drug treatment usually takes 6-7 days, fast-growing cells could be over-grown if plated at a high cell density. For αCT1 treatment experiments, Applicant intended to plate cells at a low density to minimize the formation of gap junctions, and thus, more Cx43-hemichannels can be present. […] At each hour time point, the absorbance at 490 nm was measured using a FilterMax F3 microplate reader (Molecular Devices, LLC) according to the manufacturer's instructions. Percent cell viability was obtained by dividing the absorbance of treatment groups to those of untreated and respective vehicle control groups.

half-life of αCT1 = assay type: in vitro ADME; settings: cell culture treatment
UACC-62 xenografts = experiment: UACC-62 subcutaneous xenograft; assay type: in vivo, Nod scid mice; settings: 3 mg/kg, intratumoral injection daily, 16 days
Procedure: (§1) (FIG. 52A) Cells were treated with 10 μM Selectide-18-FITC for 1 h and imaged immediately or after 96h. (FIG. 52B) Selectide-18-FITC in melanoma cells were imaged at different times. FITC was quantified using Image J and FITC intensities at different times were normalized with that at 1 h. Half-life was calculated using GraphPad. (FIG. 52C) UACC-62, MelST, or MeWo cells were treated with 50 μM of Selectide-18 for 4 days with daily repeated dosing. (FIG. 52D) MelST or melanoma cells were treated with 50 μM of Selectide-18 for 6 days with daily repeated dosing. Cell viability was measured using Cell-Titer Blue. (FIG. 52E) MelST, UACC-62, or MeWo cells were treated with Scramble or Selectide-18 at different doses. IC50s were calculated using GraphPad. (FIG. 52F) Nod scid mice bearing UACC-62 subcutaneous tumors were treated with Selectide-18 (3 mg/kg) intratumoral injection/daily) for 16 days. Tumors were measured using a caliper and tumor volumes were calculated as (length×width2))/2. Student t test or ANOVA was used to determine P values. ns: not significant; **: P<0.01; ***P<0.001.

PI3K in MelST cells = experiment: PI3K activity after Selectide-18; assay type: cell-based; settings: 50 μM, 4 days, daily repeated dosing
Procedure: as §1

PI3K in MeWo cells = experiment: PI3K activity after Selectide-18; assay type: cell-based; settings: 50 μM, 4 days, daily repeated dosing
Procedure: as §1

PI3K in UACC-62 cells = experiment: PI3K activity after Selectide-18; assay type: cell-based; settings: 50 μM, 4 days, daily repeated dosing
Procedure: as §1

melanocyte MelST = assay type: cell-based
Procedure: (FIG. 49A) Immunoblotting of p110s and signaling molecules. 3-actin (ACTB) was used as the loading control. (FIG. 49B) Summary of genetic mutations and protein levels in melanoma cells. Information regarding hot spot mutations was retrieved from e.g., DepMap. […] Cell viability was measured using CellTiter Blue. IC50s were calculated using Graphpad.
as §1, with “Student t test or ANOVA was used to determine P values. ns: not significant; **: P<0.01; ***P<0.001.” left out

[1] = uptake and intracellular half-life of Selectide-18-FITC; assay type: cell-based; settings: human, SKMEL-147 melanoma cells (intracellular); FITC intensity normalized to 1 h; read-out: half-life (HL) in cells (converted)
Procedure: as §1

MDA-MB-435S cells = experiment: melanoma cell viability (CellTiter Blue); assay type: cell-based; settings: 50 μM, 6 days, daily repeated dosing
Procedure: (§2) (FIG. 49A) Immunoblotting of p110s and signaling molecules. 3-actin (ACTB) was used as the loading control. (FIG. 49B) Summary of genetic mutations and protein levels in melanoma cells. Information regarding hot spot mutations was retrieved from e.g., DepMap. (FIG. 49C) Cells were treated with 0-40 μM of inhibitors. Cell viability was measured using CellTiter Blue. IC50s were calculated using Graphpad.
as §1

p110β^hyper cells = experiment: melanoma cell viability (CellTiter Blue); assay type: cell-based; settings: 50 μM Selectide-18, 6 days, daily repeated dosing
Procedure: as §2, §1

[2] = intracellular half-life of Selectide-18-FITC; assay type: cell-based; settings: human, UACC-62 melanoma cells (intracellular); FITC intensity normalized to 1 h; read-out: half-life (HL) in cells (converted)
Procedure: as §1

other melanoma cells = experiment: melanoma cell viability (CellTiter Blue); assay type: cell-based; settings: 50 μM Selectide-18, 6 days, daily repeated dosing
Procedure: as §1

Row | Sequence | cytotoxic effect of TMZ/TGX-221 double combination upon addition of αCT1 (U87MG cells) | half-life (half-life of αCT1) [h] | in vivo growth of xenografts (UACC-62 xenografts) | PI3K activity (PI3K in MelST cells) | PI3K activity (PI3K in MeWo cells) | PI3K activity (PI3K in UACC-62 cells) | IC50 (melanocyte MelST) [µM] | half-life [1] [h] | sensitivity to Selectide-18 (MDA-MB-435S cells) | cell viability (p110β^hyper cells) | half-life [2] [h] | cell viability (other melanoma cells)
1 | RQPKIWFPNRRKPWKKRPRPDDLEI [αCT1] | greatly increased the cytotoxic effect | ~48 | – | – | – | – | – | – | – | – | – | –
2 | TKKSTKTINPSKYQTIRK [Selectide-18] | – | – | blocked the in vivo growth | not | not | inactivated PI3K | ~2000 | 138 | sensitive | suppressed the viability | 77 | without affecting
